Test results published in PubChem BioAssay (NCI).
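48-hour exposure; five concentrations; linearly interpolated endpoints. Definition used: TGI = concentration required for complete inhibition of growth.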

Key:
Experiment in all cases: NCI anticancer screen, dose series, 48 h
A498 renal = test system: A498 renal
A549 NSCLC = test system: A549 NSCLC
BT-549 breast = test system: BT-549 breast
CAKI-1 renal = test system: CAKI-1 renal
COLO 205 colon = test system: COLO 205 colon
HCT-116 colon = test system: HCT-116 colon
HL-60(TB) leukemia = test system: HL-60(TB) leukemia
HOP-62 NSCLC = test system: HOP-62 NSCLC
HOP-92 NSCLC = test system: HOP-92 NSCLC
MDA-MB-231 breast = test system: MDA-MB-231 breast
MDA-MB-435 = test system: MDA-MB-435
NCI-H226 lung = test system: NCI-H226 lung
NCI/ADR-RES ovarian = test system: NCI/ADR-RES ovarian
RXF 393 renal = test system: RXF 393 renal
SF-539 CNS = test system: SF-539 CNS
SN12C renal = test system: SN12C renal
SW-620 colon = test system: SW-620 colon
TK-10 renal = test system: TK-10 renal
NCI-H460 lung = test system: NCI-H460 lung
SK-MEL-28 melanoma = test system: SK-MEL-28 melanoma

| Compound | TGI (A498 renal) | TGI (A549 NSCLC) | TGI (BT-549 breast) | TGI (CAKI-1 renal) | TGI (COLO 205 colon) | TGI (HCT-116 colon) | TGI (HL-60(TB) leukemia) | TGI (HOP-62 NSCLC) | TGI (HOP-92 NSCLC) | TGI (MDA-MB-231 breast) | TGI (MDA-MB-435) | TGI (NCI-H226 lung) | TGI (NCI/ADR-RES ovarian) | TGI (RXF 393 renal) | TGI (SF-539 CNS) | TGI (SN12C renal) | TGI (SW-620 colon) | TGI (TK-10 renal) | TGI (NCI-H460 lung) | TGI (SK-MEL-28 melanoma) |
| --- | --- | --- | --- | --- | --- | --- | --- | --- | --- | --- | --- | --- | --- | --- | --- | --- | --- | --- | --- | --- |
| Cc1ccc(NN=NCCCCN)cc1 | > 100 µM | > 100 µM | > 100 µM | > 100 µM | > 100 µM | > 100 µM | > 100 µM | > 100 µM | > 100 µM | > 100 µM | > 100 µM | > 100 µM | > 100 µM | > 100 µM | > 100 µM | > 100 µM | > 100 µM | > 100 µM |  |  |
| Nc1nc(Cl)c2ncn(Cc3ccc(CCl)cc3)c2n1 | 84.6 µM | 76.2 µM | 24.5 µM | 9.87 µM | 13.4 µM | 14.5 µM | > 100 µM | 27.3 µM | > 100 µM | 34.6 µM | 42.5 µM | 37.1 µM | 26.7 µM | 7.26 µM | 9.89 µM | 27.1 µM | 13.8 µM | 40.5 µM | 20 µM | 44.4 µM |
| C=CC(c1ccccc1)[C@@]1(OC(C)=O)C(=O)C(=O)OC1C1COC(C)(C)O1 (some centres undefined) | 47.9 µM | 34.5 µM | 30.1 µM | 11.7 µM | 26.5 µM | 24.7 µM | 5.86 µM | 34.2 µM | 15.9 µM | 28.5 µM | 31.2 µM | 37.6 µM | 51.7 µM | 14.6 µM | 29.4 µM | 21.7 µM | 35.8 µM | 27.1 µM | 32.3 µM | 24.6 µM |
| COc1cc(C)c2c(=O)c3ccccc3n(C)c2c1 | 56.1 µM | > 100 µM | 52.7 µM | 76.5 µM | 91.1 µM | 34 µM | 69.7 µM |  | 25.8 µM | > 100 µM | > 100 µM | 69 µM | > 100 µM | 40.4 µM | 34 µM | 41.5 µM | > 100 µM | > 100 µM | > 100 µM | 89.3 µM |
| CCOP(=O)(CCCC(O)CNc1cc(Cl)nc(N)n1)OCC (centres undefined) | > 100 µM | > 100 µM | > 100 µM | > 100 µM | > 100 µM | > 100 µM | > 100 µM | > 100 µM | > 100 µM | > 100 µM | > 100 µM | > 100 µM | > 100 µM | > 100 µM | > 100 µM | > 100 µM | > 100 µM | > 100 µM | > 100 µM | > 100 µM |
| CC(=O)O[C@H]1C(=O)[C@@]2(C)[C@H]([C@H](OC(=O)c3cccc(C(F)(F)F)c3)[C@]3(O)C[C@H](OC(=O)[C@H](O)[C@@H](NC(=O)c4ccccc4)c4ccccc4)C(C)=C1C3(C)C)[C@]1(OC(C)=O)CO[C@@H]1C[C@@H]2O | > 13.6 µM | > 25 µM | > 15.5 µM | > 25 µM | 3.27 µM | 3.21 µM | < 0.0025 µM | > 14.2 µM | 15.1 µM | > 13.1 µM | < 0.0025 µM | 11.6 µM | > 7.02 µM | 0.809 µM | 0.0105 µM | > 25 µM | > 16.4 µM | 8.88 µM | > 10.6 µM | > 25 µM |
| c1cc(Sc2nc(Sc3ccncc3)nc(Sc3ccncc3)n2)ccn1 | > 100 µM | > 100 µM | > 100 µM | > 100 µM | > 100 µM | > 100 µM | > 100 µM | > 100 µM | > 100 µM | > 100 µM | > 100 µM | > 100 µM | > 100 µM | > 100 µM | > 100 µM | > 100 µM | > 100 µM | > 100 µM | > 100 µM | > 100 µM |
| C=C(C)C1Cc2c(cc(O)c3c(=O)c4c(oc23)C(O)Oc2cc(OC)c(OC)cc2-4)O1 (centres undefined) | > 10 µM | > 10 µM | > 10 µM | > 10 µM | > 10 µM | > 10 µM | > 10 µM | > 10 µM | > 10 µM | > 10 µM | > 10 µM | > 10 µM | > 10 µM | > 10 µM | > 10 µM | > 10 µM | > 10 µM | > 10 µM | > 10 µM | > 10 µM |
| CC(C)(C)c1cc(C(C)(C)C)c(SS(=O)(=O)O)c(O)c1O | > 100 µM | > 100 µM | > 100 µM | > 100 µM | > 100 µM | > 100 µM | > 100 µM | > 100 µM | > 100 µM | > 100 µM | > 100 µM | > 100 µM | > 100 µM | 97.9 µM | 37.4 µM | > 100 µM | > 100 µM | > 100 µM | > 100 µM | > 100 µM |
| CC(C)(C)c1cc(C2NCCO2)cc(C(C)(C)C)c1O (centres undefined) | > 100 µM |  | > 100 µM | > 100 µM | > 100 µM | > 100 µM | > 100 µM | > 100 µM | > 100 µM | 54.8 µM | > 100 µM | > 100 µM | > 100 µM | 37.8 µM | > 100 µM | > 100 µM | > 100 µM | > 100 µM | > 100 µM | > 100 µM |
| COc1cc(OC)c2c(=O)cc(-c3ccccc3F)[nH]c2c1 | > 100 µM | > 100 µM | > 100 µM | > 100 µM | > 100 µM | > 100 µM | > 100 µM | > 100 µM | > 100 µM | > 100 µM | > 100 µM | > 100 µM | > 100 µM | > 100 µM |  | > 100 µM | > 100 µM | 84.4 µM | > 100 µM | > 100 µM |
| COc1c(C)c2c(c(=O)c3c(C)cccc3n2C)c2c1c(=O)c1c(C)cccc1n2C | > 10 µM | > 10 µM | > 10 µM | > 10 µM | > 10 µM | > 10 µM | > 10 µM | > 10 µM | > 10 µM | > 10 µM | > 10 µM | > 10 µM | > 10 µM | > 10 µM | > 10 µM | > 10 µM |  | > 10 µM | > 10 µM | > 10 µM |
